Experiments:
Format in all cases: in vivo, mouse
Berkeley mice [1] = test: Hypoxia/reoxygenation in Berkeley mice, intravital microscopy; details: single i.p. dose; Berkeley mice exposed to hypoxic stress
Berkeley mice [2] = test: BOLD MRI during hyperoxia challenge (tissue oxygenation, deoxyHb/oxyHb ratio) in Berkeley mice; details: single oral dose 400 mg/kg, gavage
Description: Experimental Design & Methods: Dose Efficacy Experiment: A single oral dose (gavage) of pyridoxamine (400 mg/kg) was administered to BERK mice (n=6) or C57bl WT mice (n=4) and CBF and deoxyHb levels measured (see below for Measurement Parameters) before treatment and 2 h, 24 h, 72 h, 5 days and 9 days after treatment. Measurement Parameters: Each animal was assessed for several parameters by magnetic resonance imaging (MRI) methods on a 9.4 T Agilent MRI system. The primary MRI methods included brain and muscle perfusion, water diffusivity and oxygenation. Data acquisition was by multi-shot (8) Echo Planer Imaging (msEPI) (segmented and interleaved). Perfusion data were acquired using amultislice FAIR-Quipps approach, and blood oxygenation was determined from T2w msEPI (BOLD). Inflammation was inferred from the mean diffusivity of water calculated from a Diffusion Tensor Imaging (DTI) measurement which estimates the apparent diffusion coefficient of water (ADC). Transverse relaxation (T2) will be assessed for tissue free-water content using 30 echos (TE: 1.3 ms-240 ms) using multiecho-spin echo approaches. Longitudinal relaxation (T1) is assessed using EPI-inversion recovery (T1: 0.1 s-7 s, TR 8 s). Tissue Oxygenation: Bold Oxygen Level Dependent (BOLD) measurements were made during a hyperoxia challenge. MRI begins while animals are exposed to 20% O2/80% N2 (6 min) and imaging continues while the inspired gas is switched to 100% O2, maintained for 6 minutes, then returned to normal room air levels. […] Perfusion measurements: Quantitative perfusion measurements (FAIR-Quipps) employ a volume coil for arterial labeling, and surface coil for signal measurement, and a TI of 1200 ms. […]
Data Analysis & Interpretation: All images are co-registered to a template using FSL tools (FMRIB Software library, Oxford, UK). […] Perfusion, BOLD activation ratios and metabolite ratios were calculated using MATLAB (Mathworks, Natick, Mass.). Parameter maps were calculated using a non-linear least squares in Matlab, or using the FMRIB FSL-based Diffusion Toolbox (DTIFIT). […]

NY1DD mice = test: Hypoxia/reoxygenation in NY1DD mice, intravital microscopy of cremaster venules
Description: NY1DD mice (2×n=6) were exposed to hypoxia for 16 h (gas mixture=10% O2, 0.5% CO2 and balance N2). One group of NY1 DD was then be given an intraperitoneal (i.p.) dose of pyridoxamine (400 mg/kg), dissolved in phosphate buffered saline (PBS), prior to 3 h reoxygenation in ambient conditions. The second group of NY1 DD mice was put through the same hypoxia/reoxygenation process and given vehicle (PBS) as a negative control. Healthy C57 BL/6J mice were used as healthy controls and were not exposed to hypoxia/reoxygenation stress. At the end of the reoxygenation period, the cremaster muscle was excised for intravital microscopy analysis. Intravital microscopy: Mice were anesthetized i.p. with 10% urethane and 2% α-chloralose in saline (6 ml/kg). The animals were tracheotomized and the left carotid artery cannulated to monitor systemic arterial pressure. The open cremaster muscle was prepared according to the method of Baez. The surface of the open cremaster muscle was suffused with a bicarbonate Ringer's solution of the following millimolar composition: NaCl 135.0, KCl 5.0, NaHCO3 27.0, MgCl2 0.64 and glucose 11.6. pH was adjusted to 7.35-7.4 by continuous bubbling with […]. The osmolarity of the solution, as measured by a Microosmette (Precision Systems, Inc., Sudsbury, MA) was 320 mOsm which is similar to that reported for the mouse plasma. The cremaster muscle preparation was allowed to stabilize for 30 min before the initiation of the experiment. The temperature of the suffusion solution (flow rate, 5-6 ml/min) bathing the cremaster was maintained at 34.5-35° C. and monitored by a telethermometer (YSI Inc., Yellowsprings, Ohio) during the entire experiment. Oxygen tension of the suffusion solution bathing the tissue was determined using a microoxygen electrode (model MI-730; Microelectrodes Inc., Bedford, N.H.). Microscopic observations were carried out using microscope (model BH-2; Olympus Corp., Lake Success, N.Y.) equipped with a television camera (5000 Series; Cohu, Inc., San Diego, Calif.) and a Sony U-matic video recorder (model V05800; Sony Corp., Teaneck, N.J.). Identification of venules and arterioles for observation was determined according to the published procedure. Vessel luminal diameter was measured on-line by image shearing using an image shearing device (model 907; Instruments for Physiology and Medicine, San Diego, Calif.). Red cell velocity (Vrbc) was measured along the vessel centerline using the dual-slit photodiode technique of Wayland and Johnson […]. The dual-slit photo detector was placed over the projected image of the vessel and on-line analysis of the optical signals was performed using a cross-correlator as described by Tompkins et al. (Model 102 BF; instruments for Physiology and Medicine). Vrbc measurements were made using a water immersion ×40 objective and ×6.3 eyepiece. The wall shear rates were calculated from the mean Vrbc (Vmean) and vessel diameter. The centerline Vrbc was converted to the mean red cell velocity across the vessel diameter using a conversion factor of 1.6 (Vrbc/Vmean=1.6) originally described by Baker and Wayland. Shear rates along the wall of microvessel of a given internal diameter (D) were calculated using the relationship: Wall shear rate=8 Vmean/D. Estimates of volumetric flow rates (Q) were made from Vmean and the vessel cross-sectional area (π D^2/4). Rolling leukocytes were defined as those leukocytes that distinctly roll along the endothelial surface. The rolling leukocytes were easily distinguished because of their lower velocity compared with that of leukocytes and red cells in the flow. Rolling leukocyte velocity (μm/s) represented the time required for a rolling leukocyte to traverse a given length of venule. An average of rolling velocities of approximately ten leukocytes per venule was determined by frame-by-frame analysis of video replay. […]

Berkeley mice [3] = test: MRI perfusion (FAIR-Quipps) cerebral blood flow in Berkeley mice
Description: Experimental Design & Methods: Dose Efficacy Experiment: A single oral dose (gavage) of pyridoxamine (400 mg/kg) was administered to BERK mice (n=6) or C57bl WT mice (n=4) and CBF and deoxyHb levels measured (see below for Measurement Parameters) before treatment and 2 h, 24 h, 72 h, 5 days and 9 days after treatment. Measurement Parameters: Each animal was assessed for several parameters by magnetic resonance imaging (MRI) methods on a 9.4 T Agilent MRI system. The primary MRI methods included brain and muscle perfusion, water diffusivity and oxygenation. Data acquisition was by multi-shot (8) Echo Planer Imaging (msEPI) (segmented and interleaved). Perfusion data were acquired using amultislice FAIR-Quipps approach, and blood oxygenation was determined from T2w msEPI (BOLD). Inflammation was inferred from the mean diffusivity of water calculated from a Diffusion Tensor Imaging (DTI) measurement which estimates the apparent diffusion coefficient of water (ADC). Transverse relaxation (T2) will be assessed for tissue free-water content using 30 echos (TE: 1.3 ms-240 ms) using multiecho-spin echo approaches. Longitudinal relaxation (T1) is assessed using EPI-inversion recovery (T1: 0.1 s-7 s, TR 8 s). Tissue Oxygenation: Bold Oxygen Level Dependent (BOLD) measurements were made during a hyperoxia challenge. MRI begins while animals are exposed to 20% O2/80% N2 (6 min) and imaging continues while the inspired gas is switched to 100% O2, maintained for 6 minutes, then returned to normal room air levels. BOLD image signal intensity (echo-planer T2* weighted imaging) is inversely sensitive to deoxyHb levels, such that an increase in deoxyHb/oxyHb ratio causes a decrease in BOLD signal, while a decrease in this ratio causes an increase in BOLD signal intensity. Perfusion measurements: Quantitative perfusion measurements (FAIR-Quipps) employ a volume coil for arterial labeling, and surface coil for signal measurement, and a TI of 1200 ms. Water diffusion coefficient: DTI data were collected using a 7 direction assessment, from which both the mean diffusivity (DTI-MD) and fractional anisotropy (DTI-FA) were obtained. DTI-FA provides a measure of white matter integrity and DTI-MD, along with tissue T2 provides a measure of tissue inflammation.
Data Analysis & Interpretation: All images are co-registered to a template using FSL tools (FMRIB Software library, Oxford, UK). The template was constructed of an averaged high-resolution averaged T2-weighted image from 3 co-registered BERK mice, or 3 co-registered C57bl mice. Regions of interest (ROI's) were drawn from standard atlases (Paxonis) on the template, and include white matter (CC and External Caudate), gray matter (Somatosensory, Motor, Frontal, Parietal) Cortex, hippocampus, basal ganglia, cingulate, and others) and cranial muscle from the anterior region of the head. Image data was converted from native format to NIFTI format, intensity flattened, phase corrected, orientation corrected, and registered to the template. Perfusion, BOLD activation ratios and metabolite ratios were calculated using MATLAB (Mathworks, Natick, Mass.). Parameter maps were calculated using a non-linear least squares in Matlab, or using the FMRIB FSL-based Diffusion Toolbox (DTIFIT). Registration was accomplished using the FSL-FLIRT routine. […]

[4] = single i.p. dose 400 mg/kg, 16 h hypoxia, 3 h reoxygenation, cremaster venules

Cc1ncc(CO)c(CN)c1O [pyridoxamine]
hypoxia/reoxygenation induced endothelial activation (Berkeley mice [1]): ameliorated
deoxygenated hemoglobin/oxygenated hemoglobin ratio in brain after treatment (Berkeley mice [2]; 72 h after treatment): significant decrease
time of maximum effect on brain deoxyHb/oxyHb ratio (BOLD) (Berkeley mice [2]; brain): 72 h
time of maximal effect on cranial muscle BOLD signal (oxyhemoglobin increase) (Berkeley mice [2]; cranial muscle): 72 h
change in venule diameter (NY1DD mice; single i.p. dose 400 mg/kg, 16 h hypoxia, 3 h reoxygenation, 400 mg/kg): minimal change
decrease in leukocyte adhesion (NY1DD mice; [4]): 84%
decrease in leukocyte emigration (NY1DD mice; [4]): 95%
decrease in rolling leukocytes (NY1DD mice; [4]): 24%
increase in red blood cell flow velocity (Vrbc) (NY1DD mice; [4]): 42%
increase in wall shear rate (NY1DD mice; [4]): 92%
hypoxia/reoxygenation induced endothelial activation (NY1DD mice; single i.p. dose, NY1DD mice exposed to hypoxic stress): ameliorated
time of maximum effect on cerebral blood flow (CBF) (Berkeley mice [3]; single oral dose 400 mg/kg, gavage): 72 h
effect on cerebral blood flow (CBF) (Berkeley mice [3]; single oral dose 400 mg/kg, gavage, versus C57 wild type): normalized the CBF to near wild type
time of maximum response of brain perfusion (Berkeley mice [3]; single oral dose 100-400 mg/kg): 72 h
effect on perfusion in the brain (Berkeley mice [3]; single oral dose 100-400 mg/kg, versus wild type C57BL mice): normalized perfusion in the brain of Berkeley mice to wild type values
duration of sustained effects of treatment (Berkeley mice [3]; transgenic mouse models of SCD, single dose): up to 9 days
